Data taken from US9067871B2, “Aminotetraline derivatives, pharmaceutical compositions containing them, and their use in therapy” (ABBVIE DEUTSCHLAND GMBH & CO KG, priority 2009, dated 2015).
Structures can show the parent of a compound that is named as a salt. Where two headings read alike, the source gives them in different places.

What was measured:
human GlyT1c = human GlyT1c (Homo sapiens (Human), UniProt P48067); experiment: [3H]-Glycine uptake into recombinant CHO cells expressing human GlyT1; format: cell-based
Procedure: 1. [^3H]-Glycine uptake into recombinant CHO cells expressing human GlyT1: Human GlyT1c expressing recombinant hGlyT1c—5_CHO cells were plated at 20,000 cells per well in 96 well Cytostar-T scintillation microplates (Amersham Biosciences) and cultured to sub-confluency for 24 h. […] 80 μl HBSS buffer were added, followed by 10 μl inhibitor or vehicle (10% DMSO) and 10 μl [^3H]-glycine (TRK71, Amersham Biosciences) to a final concentration of 200 nM for initiation of glycine uptake. The plates were placed in a Wallac Microbeta (PerkinElmer) and continuously counted by solid phase scintillation spectrometry during up to 3 hours. Nonspecific uptake was determined in the presence of 10 μM Org24598.

human GlyT1c transporter = human GlyT1c transporter (Homo sapiens (Human), UniProt P48067); experiment: Radioligand binding assay using recombinant CHO cell membranes expressing human GlyT1; conditions: read-out: radioligand binding Kiapp
Text: 2. Radioligand binding assays using recombinant CHO cell membranes expressing human GlyT1: […]

[1] = hGlyT1c_5_CHO cells, 200 nM [3H]-glycine
[2] = human GlyT1c-expressing CHO cell membranes

Chain of human GlyT1c transporter (P48067 whole entry): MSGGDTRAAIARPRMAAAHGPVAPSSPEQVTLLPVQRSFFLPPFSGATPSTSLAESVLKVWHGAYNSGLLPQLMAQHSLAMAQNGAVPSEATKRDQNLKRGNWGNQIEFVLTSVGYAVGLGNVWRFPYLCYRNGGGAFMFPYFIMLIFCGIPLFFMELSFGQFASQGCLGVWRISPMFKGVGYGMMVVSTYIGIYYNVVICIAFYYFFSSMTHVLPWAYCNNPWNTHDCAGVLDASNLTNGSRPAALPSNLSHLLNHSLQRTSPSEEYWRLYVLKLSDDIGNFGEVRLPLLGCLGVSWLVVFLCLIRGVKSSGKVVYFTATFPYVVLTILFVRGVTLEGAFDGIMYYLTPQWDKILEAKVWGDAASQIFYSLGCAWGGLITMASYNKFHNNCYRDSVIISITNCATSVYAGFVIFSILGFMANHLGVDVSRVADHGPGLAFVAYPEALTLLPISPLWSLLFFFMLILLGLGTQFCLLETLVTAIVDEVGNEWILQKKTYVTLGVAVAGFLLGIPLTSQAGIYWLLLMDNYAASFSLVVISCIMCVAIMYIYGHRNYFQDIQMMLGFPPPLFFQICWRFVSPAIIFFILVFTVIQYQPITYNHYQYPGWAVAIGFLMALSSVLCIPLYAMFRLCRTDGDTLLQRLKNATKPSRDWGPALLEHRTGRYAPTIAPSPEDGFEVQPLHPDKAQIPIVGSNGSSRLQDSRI
Chain of human GlyT1c (P48067 whole entry): as above

Compound	IC50 (human GlyT1c; [1]) [µM]	Ki (human GlyT1c transporter; [2]) [µM]	IC50 (human GlyT1c) [µM]	Ki (human GlyT1c transporter) [µM]
CCCS(=O)(=O)N(C)Cc1ccc2c(c1)[C@H](Cc1ccccc1)[C@H](N)CC2 (relative stereo) [Example 45, N-{[cis-7-amino-8-benzyl-5,6,7,8-tetrahydronaphthalen-2-yl]methyl}-N-methylpropane-1-sulfonamide hydrochloride]	≤ 0.1	≤ 0.1		
CCOC(=O)NC1CCc2ccc(OCCNC(=O)OC(C)(C)C)cc2C1Cc1ccc(Cl)c(Cl)c1 (centres unmarked) [Example 1, [7-(2-tert-Butoxycarbonylamino-ethoxy)-1-(3,4-dichloro-benzyl)-1,2,3,4-tetrahydro-naphthalen-2-yl]-carbamic acid ethyl ester]	≤ 1000	≤ 10		
CCOC(=O)NC1CCc2ccc(OCCNS(=O)(=O)c3cn(C)cn3)cc2C1Cc1ccc(Cl)c(Cl)c1 (centres unmarked) [Example 2, Ethyl 1-(3,4-dichlorobenzyl)-7-(2-(1-methyl-1H-imidazole-4-sulfonamido)ethoxy)-1,2,3,4-tetrahydronaphthalen-2-ylcarbamate]	≤ 1	≤ 0.1		
Cn1cnc(S(=O)(=O)NCCOc2ccc3c(c2)C(Cc2ccc(Cl)c(Cl)c2)C(N)CC3)c1 (centres unmarked) [Example 3, N-(2-(7-Amino-8-(3,4-dichlorobenzyl)-5,6,7,8-tetrahydronaphthalen-2-yloxy)ethyl)-1-methyl-1H-imidazole-4-sulfonamide hydrochloride]			≤ 0.01	≤ 0.01
Cn1cc(S(=O)(=O)NCCOc2ccc3c(c2)C(Cc2ccc(Cl)c(Cl)c2)C(N)CC3)cn1 (centres unmarked) [Example 4, 1-Methyl-1H-pyrazole-4-sulfonic acid {2-[7-amino-8-(3,4-dichloro-benzyl)-5,6,7,8-tetrahydro-naphthalen-2-yloxy]-ethyl}-amide hydrochloride]	≤ 0.01	≤ 0.01		
NC1CCc2ccc(OCCNS(=O)(=O)c3cccnc3)cc2C1Cc1ccc(Cl)c(Cl)c1 (centres unmarked) [Example 5, Pyridine-3-sulfonic acid {2-[7-amino-8-(3,4-dichloro-benzyl)-5,6,7,8-tetrahydro-naphthalen-2-yloxy]-ethyl}-amide hydrochloride]	≤ 1	≤ 1		
CCCS(=O)(=O)NCCOc1ccc2c(c1)C(Cc1ccc(Cl)c(Cl)c1)C(N(C)C)CC2 (centres unmarked) [Example 6]	≤ 1	≤ 0.1		
CCCS(=O)(=O)NCCOc1ccc2c(c1)C(Cc1ccc(Cl)c(Cl)c1)C(NC(=O)OCC)CC2 (centres unmarked) [Example 7]	≤ 10	≤ 10		
CCCS(=O)(=O)NCCOc1ccc2c(c1)C(Cc1ccc(Cl)c(Cl)c1)C(N)CC2 (centres unmarked) [Example 8, Propane-1-sulfonic acid {2-[7-amino-8-(3,4-dichloro-benzyl)-5,6,7,8-tetrahydronaphthalen-2-yloxy]-ethyl}-amide hydrochloride]			≤ 0.1	≤ 0.1
CCOC(=O)NC1CCc2ccc(OCCNS(=O)(=O)c3cnn(C)c3)cc2C1Cc1ccc(Cl)c(Cl)c1 (centres unmarked) [Example 9, {1-(3,4-Dichloro-benzyl)-7-[2-(1-methyl-1H-pyrazole-4-sulfonylamino)-ethoxy]-1,2,3,4-tetrahydro-naphthalen-2-yl}-carbamic acid ethyl ester]	≤ 1	≤ 1		
CCOC(=O)NC1CCc2ccc(OCCNS(=O)(=O)c3cccnc3)cc2C1Cc1ccc(Cl)c(Cl)c1 (centres unmarked) [Example 10, {1-(3,4-Dichloro-benzyl)-7-[2-(pyridine-3-sulfonylamino)-ethoxy]-1,2,3,4-tetrahydronaphthalen-2-yl}-carbamic acid ethyl ester]	≤ 100	≤ 10		
CCCS(=O)(=O)N(C)CCOc1ccc2c(c1)C(Cc1ccc(Cl)c(Cl)c1)C(N)CC2 (centres unmarked) [Example 11, N-(2-(7-Amino-8-(3,4-dichlorobenzyl)-5,6,7,8-tetrahydronaphthalen-2-yloxy)ethyl)-N-methylpropane-1-sulfonamide hydrochloride]	≤ 1	≤ 0.1		
CCOC(=O)NC1CCc2ccc(OCCNS(C)(=O)=O)cc2C1Cc1ccc(Cl)c(Cl)c1 (centres unmarked) [Example 12, [1-(3,4-Dichloro-benzyl)-7-(2-methanesulfonylamino-ethoxy)-1,2,3,4-tetrahydronaphthalen-2-yl]-carbamic acid ethyl ester]	≤ 100	≥ 10		
CCOC(=O)NC1CCc2ccc(OCCNS(=O)(=O)c3ccccc3)cc2C1Cc1ccc(Cl)c(Cl)c1 (centres unmarked) [Example 13, [7-(2-Benzenesulfonylamino-ethoxy)-1-(3,4-dichloro-benzyl)-1,2,3,4-tetrahydronaphthalen-2-yl]-carbamic acid ethyl ester]	≤ 1000	≤ 100		
CCOC(=O)NC1CCc2ccc(OCCNS(=O)(=O)c3cccs3)cc2C1Cc1ccc(Cl)c(Cl)c1 (centres unmarked) [Example 14, {1-(3,4-Dichloro-benzyl)-7-[2-(thiophene-2-sulfonylamino)-ethoxy]-1,2,3,4-tetrahydronaphthalen-2-yl}-carbamic acid ethyl ester]	≤ 1000	≤ 100		
CS(=O)(=O)NCCOc1ccc2c(c1)C(Cc1ccc(Cl)c(Cl)c1)C(N)CC2 (centres unmarked) [Example 15, N-{2-[7-Amino-8-(3,4-dichloro-benzyl)-5,6,7,8-tetrahydro-naphthalen-2-yloxy]-ethyl}-methanesulfonamide hydrochloride]			≤ 1	≤ 1
NC1CCc2ccc(OCCNS(=O)(=O)c3ccccc3)cc2C1Cc1ccc(Cl)c(Cl)c1 (centres unmarked) [Example 16, N-{2-[7-Amino-8-(3,4-dichloro-benzyl)-5,6,7,8-tetrahydro-naphthalen-2-yloxy]-ethyl}-benzenesulfonamide hydrochloride]			≤ 10	≤ 10
NC1CCc2ccc(OCCNS(=O)(=O)c3cccs3)cc2C1Cc1ccc(Cl)c(Cl)c1 (centres unmarked) [Example 17, Thiophene-2-sulfonic acid {2-[7-amino-8-(3,4-dichloro-benzyl)-5,6,7,8-tetrahydro-naphthalen-2-yloxy]-ethyl}-amide hydrochloride]	≤ 10	≤ 1		
Cn1cnc(S(=O)(=O)NCCOc2ccc3c(c2)C(Cc2ccc(Cl)c(Cl)c2)C(NC(=O)C(F)(F)F)CC3)c1 (centres unmarked) [Example 18, N-{1-(3,4-Dichloro-benzyl)-7-[2-(1-methyl-1H-imidazole-4-sulfonylamino)-ethoxy]-1,2,3,4-tetrahydro-naphthalen-2-yl}-2,2,2-trifluoro-acetamide]	≤ 0.1	≤ 0.01		
NC1CCc2ccc(OCCNS(=O)(=O)C3CCNC3)cc2C1Cc1ccc(Cl)c(Cl)c1 (centres unmarked) [Example 19, Pyrrolidine-3-sulfonic acid {2-[7-amino-8-(3,4-dichloro-benzyl)-5,6,7,8-tetrahydronaphthalen-2-yloxy]-ethyl}-amide hydrochloride]	≤ 100	≤ 10		
Cn1cnc(S(=O)(=O)NCCOc2ccc3c(c2)C(Cc2ccc(Cl)c(Cl)c2)C(NC=O)CC3)c1 (centres unmarked) [Example 20, 1-Methyl-1H-imidazole-4-sulfonic acid {2-[8-(3,4-dichloro-benzyl)-7-formylamino-5,6,7,8-tetrahydro-naphthalen-2-yloxy]-ethyl}-amide]	≤ 0.1	≤ 0.01		
CCOC(=O)NC1CCc2ccc(OCCNS(=O)(=O)c3cc(C)cs3)cc2C1Cc1ccc(Cl)c(Cl)c1 (centres unmarked) [Example 21]	≤ 1000	≤ 100		
CCOC(=O)NC1CCc2ccc(OCCNS(=O)(=O)CCCF)cc2C1Cc1ccc(Cl)c(Cl)c1 (centres unmarked) [Example 22, {1-(3,4-Dichloro-benzyl)-7-[2-(3-fluoro-propane-1-sulfonylamino)-ethoxy]-1,2,3,4-tetrahydro-naphthalen-2-yl}-carbamic acid ethyl ester]	≤ 1000	≤ 10		
CCNC1CCc2ccc(OCCNS(=O)(=O)c3cn(C)cn3)cc2C1Cc1ccc(Cl)c(Cl)c1 (centres unmarked) [Example 23, 1-Methyl-1H-imidazole-4-sulfonic acid {2-[8-(3,4-dichloro-benzyl)-7-ethylamino-5,6,7,8-tetrahydro-naphthalen-2-yloxy]-ethyl}-amide]	≤ 100	≤ 10		
Cc1csc(S(=O)(=O)NCCOc2ccc3c(c2)C(Cc2ccc(Cl)c(Cl)c2)C(N)CC3)c1 (centres unmarked) [Example 24, 4-Methyl-thiophene-2-sulfonic acid {2-[7-amino-8-(3,4-dichloro-benzyl)-5,6,7,8-tetrahydronaphthalen-2-yloxy]-ethyl}-amide hydrochloride]			≤ 10	≤ 0.1
CN(C)S(=O)(=O)NCCOc1ccc2c(c1)C(Cc1ccc(Cl)c(Cl)c1)C(N)CC2 (centres unmarked) [Example 25, N′-(2-{[7-amino-8-(3,4-dichlorobenzyl)-5,6,7,8-tetrahydronaphthalen-2-yl]oxy}ethyl)-N,N-dimethylsulfuric diamide hydrochloride]	≤ 1	≤ 0.1		
CCOC(=O)NC1CCc2ccc(OCCNS(=O)(=O)CCC(F)(F)F)cc2C1Cc1ccc(Cl)c(Cl)c1 (centres unmarked) [Example 26, {1-(3,4-Dichloro-benzyl)-7-[2-(3,3,3-trifluoro-propane-1-sulfonylamino)-ethoxy]-1,2,3,4-tetrahydro-naphthalen-2-yl}-carbamic acid ethyl ester]	≤ 1000	≤ 10		
Cn1cnc(S(=O)(=O)NCCOc2ccc3c(c2)C(Cc2ccc(Cl)cc2)C(N)CC3)c1 (centres unmarked) [Example 27, 1-Methyl-1H-imidazole-4-sulfonic acid {2-[7-amino-8-(4-chloro-benzyl)-5,6,7,8-tetrahydronaphthalen-2-yloxy]-ethyl}-amide hydrochloride]	≤ 0.01	≤ 0.01		
